Patent publication US20080113900A1, “Pharmaceutical compositions and therapeutic applications for the use of a synthetic vitamin B12 derivative, glutathionylcobalamin” (priority 2006, published 2008)
Several values for one entry are separate records, joined by “and”; a condition that tells them apart may be missing. Equal values may be shown once.

Test system: SK-HEP-1 cells
Assay: Effect of high concentrations of NACCbl and GSCbl on SK-HEP-1 cells (MTS assay, 24 hours)
Format: cell-based, human
Conditions: for Cell viability by MTS assay (FIG. 13): SK-HEP-1, 3 replicates

Which results are given for `CC(=O)NC(C[S-])C(=O)O.CC1=C2N=C(C=C3N=C(C(C)=C4[N-]C(C(CC(N)=O)C4(C)CCC(=O)NCC(C)OP(=O)([O-])OC4C(CO)OC(n5cnc6cc(C)c(C)cc65)C4O)C4(C)N=C1C(CCC(N)=O)C4(C)CC(N)=O)C(CCC(N)=O)C3(C)C)C(CCC(N)=O)C2(C)CC(N)=O.[Co+3]` [NACCbl, N-acetyl-L-cysteinylcobalamin]?
Survival (SK-HEP-1, 10 mM, 24 hours): over 60%; Cell viability by MTS assay (FIG. 13) (compound conc. 0.61, 24 hours): 2.572 and 2.498 and 2.473; Cell viability by MTS assay (FIG. 13) (compound conc. 1.22, 24 hours): 2.546 and 2.524 and 2.538; Cell viability by MTS assay (FIG. 13) (compound conc. 2.441, 24 hours): 2.592 and 2.536 and 2.499; Cell viability by MTS assay (FIG. 13) (compound conc. 4.882, 24 hours): 2.532 and 2.463 and 2.457; Cell viability by MTS assay (FIG. 13) (compound conc. 9.765, 24 hours): 2.505 and 2.474 and 2.514; Cell viability by MTS assay (FIG. 13) (compound conc. 19.531, 24 hours): 2.485 and 2.466 and 2.502; Cell viability by MTS assay (FIG. 13) (compound conc. 39.062, 24 hours): 2.503 and 2.474 and 2.453; Cell viability by MTS assay (FIG. 13) (compound conc. 78.125, 24 hours): 2.521 and 2.488 and 2.475; Cell viability by MTS assay (FIG. 13) (compound conc. 156.25, 24 hours): 2.484 and 2.42 and 2.492; Cell viability by MTS assay (FIG. 13) (compound conc. 312.5, 24 hours): 2.409 and 2.301 and 2.437; Cell viability by MTS assay (FIG. 13) (compound conc. 625, 24 hours): 2.358 and 2.242 and 2.347; Cell viability by MTS assay (FIG. 13) (compound conc. 1250, 24 hours): 2.2 and 2.055 and 2.3; Cell viability by MTS assay (FIG. 13) (compound conc. 2500, 24 hours): 1.989 and 1.891 and 2.085; Cell viability by MTS assay (FIG. 13) (compound conc. 5000, 24 hours): 2.081 and 2.003 and 2.004; Cell viability by MTS assay (FIG. 13) (compound conc. 10000, 24 hours): 1.908 and 1.82 and 1.732
